Reference: US10344026B2, “Compositions and methods of targeting mutant K-ras” (NANTBIO, INC., priority 2017, dated 2019)
Like-named read-outs stand apart in the source and are kept apart here.

Legend:
Assay type in all cases: cell-based
wild type K-Ras = target: T1, wild type K-Ras (Homo sapiens, UniProt P01116); experiment: G-LISA Ras activation, 293H cells transfected with Ras wild-type, EGF stimulated; settings: compound 1 hour, then 100 ng/ml EGF 2 minutes
T1 construct: expressed in transfected cells; host or cells: 293H cells
Protocol: (§1) 293H cells were seeded in 6-wells at 0.6×10^6 cells per well and transfected next day with 5 μg of Ras wild-type, or G12C, G12D or G12V mutant DNA plasmid vector using transfection reagent Lipofectamine 3000. Next day cells were treated with 3.125-25 μM of Ras compounds for 1 hour. Wild-type transfected cells were subsequently treated with 100 ng/ml EGF for 2 minutes. Cells were washed once in ice-cold PBS, lysed in complete lysis buffer on ice, and processed by G-LISA according to Cytoskeleton protocol.

K-Ras G12D = target: T2, K-Ras G12D (Homo sapiens, UniProt P01116, G12D); experiment: G-LISA Ras activation, 293H cells transfected with G12D mutant; settings: compound 1 hour
T2 construct: expressed in transfected cells; host or cells: 293H cells
Protocol: as §1

HCT116-G31D = experiment: Viability assay (CellTiterBlue, 72 hr) HCT116; settings: Homo sapiens, HCT-116, GI50, CellTiterBlue, read-out: 72 hr Cell Viability HCT116 (G13D)
Protocol: (§2) Viability assays were performed on exemplary compounds and Table 2 below lists exemplary results for selected compounds tested on K-Ras wild type cell lines (Ishikawa, U87-MG, HCC827, and A375) and various K-Ras mutant cell lines (Panc1-G12D; Panc10.05-G12D; HCT116-G31D). Results are expressed in μM and corresponding structures are shown in FIGS. 2A-2G and Examples 1-152, above.
(§3) Cells are counted and seeded at 1000 cells/36 ul medium/well into 384-well microplates. Cells are returned to 37° C. CO2 incubator for 18 hr. Drug is made as 200× in DMSO and diluted into medium to 10×. To each well is added 4 ul 10× drug, and plates are returned to the incubator. Final assay DMSO concentration is 0.5%. After 72 hr, 8 ul CellTiterBlue (Promega) is added to each well. After 3 hr, fluorescence (Ex550/Em590) is determined on the Victor Plate Reader (Perkin Elmer). Assay range is determined by DMSO control (100% viability) and 100 uM tamoxifen (0% viability). GI50 values are calculated using Graphpad Prism.

Panc1-G12D = experiment: Viability assay (CellTiterBlue, 72 hr) Panc1; settings: Homo sapiens, PANC-1, GI50, CellTiterBlue, read-out: 72 hr Cell Viability Panc1 (G12D)
Protocol: as §2, §3

[1] = tested on: phospho-ERK in Panc10.05 (G12D); experiment: In-Cell Western phospho-ERK, Panc10.05; settings: Homo sapiens, Panc1005, 1 h; Panc10.05, one hour treatment; read-out: In-Cell Western Panc10.05 (G12D) Erk (P)
Protocol: (§4) In-cell phosphorylation assays for Erk and Akt were performed on several of the compounds and exemplary results are shown in Table 3 below using HCC827 and A375 cell lines for wild type K-Ras and Panc1 and Panc10.05 cell lines for G12D K-Ras mutants. Results are expressed in μM and corresponding structures are shown in FIGS. 2A-2G and Examples 1-152, above.
(§5) Cells are seeded in complete medium into black sided, clear-bottom 384-well microplates at 3000 cells/[…]/well. Plates are returned to 37° C. CO2 incubator for 18 hr. Drug is made as 200× in DMSO and diluted into medium to 10×. To each well is added 4 ul 10× test article or controls, and plates are returned to the incubator. Final assay DMSO concentration is 0.5%. After one hour, cells are fixed in formaldehyde, rinsed & permeabilized with triton X-100, and blocked with BSA/Goat serum blocking solution. Primary phospho-Akt and phospho-ERK antibodies are added and plates are incubated overnight at 4° C. Plates are rinsed with Tween-20 wash buffer and secondary antibody (Goat anti-rabbit, Thermofisher) is added. After 2 hours, plates are rinsed in Tween-20 wash buffer, and then PBS. Plates are imaged on the Celigo (Nexcelom) and cellular fluorescence is quantitated. Full inhibition of phospho-Akt is achieved with 1 uM BEZ235 (Sellekchem), while full inhibition of phospho-ERK is achieved with 1 uM MEK Inhibitor II Calbiochem). EC50 values are calculated using Graphpad Prism.

[2] = tested on: phospho-ERK in Panc1 (G12D); experiment: In-Cell Western phospho-ERK, Panc1; settings: Homo sapiens, PANC-1, 1 h; Panc1, one hour treatment; read-out: In-Cell Western Panc1 (G12D) Erk (P)
Protocol: as §4, §5

Panc10.05-G12D = experiment: Viability assay (CellTiterBlue, 72 hr) Panc10.05; settings: Homo sapiens, Panc1005, GI50, CellTiterBlue, read-out: 72 hr Cell Viability Panc10.05 (G12D)
Protocol: as §2, §3

[3] = tested on: Ishikawa (K-Ras wild type cell line); experiment: Viability assay (CellTiterBlue, 72 hr) Ishikawa; settings: Homo sapiens, GI50, CellTiterBlue
Protocol: as §2, §3

[4] = tested on: HCC827 (K-Ras wild type cell line); experiment: Viability assay (CellTiterBlue, 72 hr) HCC827; settings: Homo sapiens, GI50, CellTiterBlue
Protocol: as §2, §3

[5] = tested on: phospho-Akt in Panc10.05 (G12D); experiment: In-Cell Western phospho-Akt, Panc10.05; settings: Homo sapiens, Panc1005, 1 h; Panc10.05, one hour treatment; read-out: In-Cell Western Panc10.05 (G12D) Akt (P)
Protocol: as §4, §5

[6] = tested on: phospho-Akt in Panc1 (G12D); experiment: In-Cell Western phospho-Akt, Panc1; settings: Homo sapiens, PANC-1, 1 h; Panc1, one hour treatment; read-out: In-Cell Western Panc1 (G12D) Akt (P)
Protocol: as §4, §5

[7] = tested on: U87-MG (K-Ras wild type cell line); experiment: Viability assay (CellTiterBlue, 72 hr) U87-MG; settings: Homo sapiens, U-87 MG, GI50, CellTiterBlue, U87-MG K-Ras wild-type
Protocol: as §2, §3

T2 sequence (P01116 whole entry G12D): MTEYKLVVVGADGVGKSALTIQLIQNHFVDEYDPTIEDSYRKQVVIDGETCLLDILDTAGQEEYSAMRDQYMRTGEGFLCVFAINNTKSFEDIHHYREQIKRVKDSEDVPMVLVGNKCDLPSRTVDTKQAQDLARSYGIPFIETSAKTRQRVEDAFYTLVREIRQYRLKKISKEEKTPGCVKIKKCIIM
T1 sequence (P01116 whole entry): as the sequence (P01116 whole entry G12D) above, with D12G counted along it

IC50 (wild type K-Ras) [µM] | IC50 (K-Ras G12D) [µM] | SMILES | IC50 (HCT116-G31D; HCT116 K-Ras G13D) [µM] | IC50 (Panc1-G12D; Panc1 K-Ras G12D) [µM] | EC50 [1] [µM] | EC50 [2] [µM] | IC50 (Panc10.05-G12D; Panc10.05 K-Ras G12D) [µM] | IC50 ([3]; Ishikawa K-Ras wild-type) [µM] | IC50 ([4]; HCC827 K-Ras wild-type) [µM] | EC50 [5] [µM] | EC50 [6] [µM] | IC50 [7] [µM] | IC50 (HCT116-G31D; HCT116 cells (K-Ras G13D)) [µM] | IC50 (Panc1-G12D; Panc1 cells (K-Ras G12D)) [µM] | IC50 (Panc10.05-G12D; Panc10.05 cells (K-Ras G12D)) [µM] | IC50 ([3]; Ishikawa cells (K-Ras wild-type)) [µM] | IC50 ([4]; HCC827 cells (K-Ras wild-type)) [µM]
3.8 | 9.3 | Cc1nc(C)c(C(=O)Nc2nc(-c3ccc4c(c3)CCC(=O)N4)cs2)s1 [Compound 1, 2,4-dimethyl-N-(4-(2-oxo-1,2,3,4-tetrahydroquinolin-6-yl)thiazol-2-yl)thiazole-5-carboxamide] |  |  |  |  |  |  |  |  |  |  |  |  |  |  | 
25.1 | 10.9 | Cc1nc(C)c(C(=O)Nc2nc(-c3ccc4c(c3)CCC(=O)N4)cs2)o1 [Compound 4, 2,4-dimethyl-N-(4-(2-oxo-1,2,3,4-tetrahydroquinolin-6-yl)thiazol-2-yl)oxazole-5-carboxamide] |  |  |  |  |  |  |  |  |  |  |  |  |  |  | 
 |  | Cc1nc(C(=O)Nc2nc(-c3ccc4c(c3)CCC(=O)N4)cs2)c(C)o1 [Compound 9, 2,5-dimethyl-N-(4-(2-oxo-1,2,3,4-tetrahydroquinolin-6-yl)thiazol-2-yl)oxazole-4-carboxamide] | > 25 | > 25 | > 25 | > 25 | > 25 | > 25 | > 25 | > 25 | > 25 |  |  |  |  |  | 
 |  | Cc1nc(NS(C)(=O)=O)sc1C(=O)Nc1nc(-c2ccc3c(c2)CCC(=O)N3)cs1 [Compound 13, 4-methyl-2-(methylsulfonamido)-N-(4-(2-oxo-1,2,3,4-tetrahydroquinolin-6-yl)thiazol-2-yl)thiazole-5-carboxamide] | 21 | > 25 |  |  | > 25 | > 25 |  | > 25 | > 25 | > 25 |  |  |  |  | 
 |  | CC(=O)Nc1nc(C)c(C(=O)Nc2nc(-c3ccc4c(c3)CCC(=O)N4)cs2)s1 [Compound 14, 2-acetamido-4-methyl-N-(4-(2-oxo-1,2,3,4-tetrahydroquinolin-6-yl)thiazol-2-yl)thiazole-5-carboxamide] | > 25 | > 25 | 26 | > 25 | 6 | > 25 |  |  | > 25 | > 25 |  |  |  |  | 
 |  | Cc1nc(NC(=O)Nc2ccccc2)sc1C(=O)Nc1nc(-c2ccc3c(c2)CCC(=O)N3)cs1 [Compound 15] | > 25 | > 25 | > 25 | 2 | 1.3 | 15 |  | > 25 |  | 15 |  |  |  |  | 
 |  | Cc1nc(C2CCN(C)CC2)sc1C(=O)Nc1nc(-c2ccc3c(c2)CCC(=O)N3)cs1 [Compound 16, 4-methyl-2-(1-methylpiperidin-4-yl)-N-(4-(2-oxo-1,2,3,4-tetrahydroquinolin-6-yl)thiazol-2-yl)thiazole-5-carboxamide] | 9 | 3 |  |  | 11 | > 25 |  | > 25 | > 25 | > 25 |  |  |  |  | 
 |  | Cc1ncccc1C(=O)Nc1nc(-c2ccc3c(c2)CCC(=O)N3)cs1 [Compound 17, 2-methyl-N-(4-(2-oxo-1,2,3,4-tetrahydroquinolin-6-yl)thiazol-2-yl)nicotinamide] | > 25 | 7 | > 25 | > 25 | 4 | > 25 | > 25 | 23 | > 25 |  |  |  |  |  | 
 |  | Cc1cn(C)nc1C(=O)Nc1nc(-c2ccc3c(c2)CCC(=O)N3)cs1 [Compound 23, 1,4-dimethyl-N-(4-(2-oxo-1,2,3,4-tetrahydroquinolin-6-yl)thiazol-2-yl)-1H-pyrazole-3-carboxamide] | > 25 | > 25 | > 25 | > 25 | 2 | > 25 | > 25 | > 25 | > 25 |  |  |  |  |  | 
 |  | CCc1nc(C)c(C(=O)Nc2nc(-c3ccc4c(c3)CCC(=O)N4Cc3ccncc3)cs2)o1 [Compound 65, 2-ethyl-4-methyl-N-(4-(2-oxo-1-(pyridin-4-ylmethyl)-1,2,3,4-tetrahydroquinolin-6-yl)thiazol-2-yl)oxazole-5-carboxamide] | > 25 | > 25 | > 25 | > 25 | 15 | > 25 |  |  | > 25 | > 25 |  |  |  |  | 
 |  | Cc1nc(C)c(C(=O)Nc2nc(-c3ccc4c(c3)CCC(=O)N4)c(Cl)s2)s1 [Compound 144, N-(5-chloro-4-(2-oxo-1,2,3,4-tetrahydroquinolin-6-yl)thiazol-2-yl)-2,4-dimethylthiazole-5-carboxamide] | > 25 | 8 | 10 | 6 | 10 | > 25 |  | > 25 | 16 | 11 |  |  |  |  | 
 |  | Cc1nc(C2CCCCC2)sc1C(=O)Nc1nc(-c2ccc3c(c2)CCC(=O)N3)cs1 [Compound 146, 2-cyclohexyl-4-methyl-N-(4-(2-oxo-1,2,3,4-tetrahydroquinolin-6-yl)thiazol-2-yl)thiazole-5-carboxamide] | > 25 | 13 | 9 | 5 | 8 | > 25 |  | > 25 | > 25 |  |  |  |  |  | 
 |  | Cc1ncc(C(=O)Nc2nc(-c3ccc4c(c3)CCC(=O)N4)cs2)c(C)n1 [Compound 148, 2,4-dimethyl-N-(4-(2-oxo-1,2,3,4-tetrahydroquinolin-6-yl)thiazol-2-yl)pyrimidine-5-carboxamide] |  |  | > 25 | > 25 |  |  |  | > 25 | > 25 |  | > 25 | 4 | 2 | 18 | 11

SMILES | IC50 (wild type K-Ras) [µM] | IC50 (K-Ras G12D) [µM] | IC50 (HCT116-G31D; HCT116 K-Ras G13D) [µM] | IC50 (Panc1-G12D; Panc1 K-Ras G12D) [µM] | EC50 [1] [µM] | EC50 [2] [µM] | IC50 (Panc10.05-G12D; Panc10.05 K-Ras G12D) [µM] | IC50 ([3]; Ishikawa K-Ras wild-type) [µM] | IC50 ([4]; HCC827 K-Ras wild-type) [µM] | EC50 [5] [µM] | EC50 [6] [µM] | IC50 [7] [µM] | IC50 (HCT116-G31D; HCT116 cells (K-Ras G13D)) [µM] | IC50 (Panc1-G12D; Panc1 cells (K-Ras G12D)) [µM] | IC50 (Panc10.05-G12D; Panc10.05 cells (K-Ras G12D)) [µM] | IC50 ([3]; Ishikawa cells (K-Ras wild-type)) [µM] | IC50 ([4]; HCC827 cells (K-Ras wild-type)) [µM]
Cc1nc(CN)sc1C(=O)Nc1nc(-c2ccc3c(c2)CCC(=O)N3)cs1 [Compound 147, 2-(aminomethyl)-4-methyl-N-(4-(2-oxo-1,2,3,4-tetrahydroquinolin-6-yl)thiazol-2-yl)thiazole-5-carboxamide] |  | > 25 | > 25 | 17 | 14 | 12 | 12 | > 25 |  | > 25 | > 25 |  |  |  |  |  | 
